Assay results reported in US11104619B2, “Mixture for treating fertilizers containing urea” (EuroChem Agro GmbH, priority 2015, dated 2021).
Where two headings read alike, the source gives them in different places.

What was measured:
[1] = test system: nitrification; test: Soil incubation trial: recovery of applied urea N as ammonium; details: for percentage recovery in the form of ammonium, % of applied urea (13 mg N): 28 days after application, Filder loam pH 6.8, 20° C., 200 kg urea N/ha, label gives UI/NI fraction of recommended rate (0.6 g NBPT, 3.6 g DMPSA per kg urea)
Method: % of applied urea (13 mg N)
A determination was carried out 28 days after application of the urea, with the percentage recovery in the form of ammonium being reported.

[2] = test system: nitrification; test: Soil incubation trial: nitrate formed from applied urea N; details: for Nitrate, % of the urea applied (13 mg N): Filder loam, 20° C., label gives UI/NI fraction of recommended rate
Method: % of the urea applied (13 mg N)

[3] = test system: nitrification; test: Soil incubation trial: cumulative laughing gas (N2O-N) emission; details: for N2O—N cumulative / N2O—N cumulative, % of appl.: 77 mg N applied; for N2O—N cumulative, % of appl.: cumulative over 28 days
[4] = test system: urease; details: for Ammonia emission, % of the urea applied (77 mg N): Filder loam, 20° C., label gives UI/NI fraction of recommended rate
Method: Screening trials were conducted to evaluate the effect of DMPSA and NBPT in the inhibition of urease and inhibition of nitrification, and to find suitable quantities for use. Serving for this purpose was a two-factorial trial design including an unfertilized control sample. For the urease inhibitor NBPT and for the nitrification inhibitor DMPSA, in each case 0%, 33%, 66% and 100% of the application rates recommended for the individual compounds when used alone were used (in this example, 0.6 g of NBPT per kg of urea and, respectively, 3.6 g of DMPSA per kg of urea), giving 16 trials (0%-0% to 100%-100%), in addition to the unfertilized control sample.
Urea fertilizer was delivered in an amount of 200 kg nitrogen per ha, corresponding to 0.51 mg of urea nitrogen per g of soil. The soil used was Filder loam with a pH of 6.8. The incubation trials were carried out at 20° C. For the investigation of trace gases, air supply was passed first through a gas sample, then through a 250 ml capacity glass bottle containing 150 g of soil, subsequently through a gas sample for the outgoing air and through an acid trap, in order, for example, to determine amounts of ammonia. For the measurement of nitrogen, about 20 g of soil were incubated; for the measurement of urea, about 5 g of soil.

Question: How did the “inhibition of nitrification (ammonium results)” value ([1]; 33% of DMPSA, throughout the trial) turn out when Cc1cn(C(CC(=O)O)C(=O)O)nc1C (stereo not drawn) [DMPSA, 2-(N-3,4-dimethylpyrazole)succinic acid] was run?
Answer: Its value is “sufficient to inhibit nitrification throughout the trial”.

Question: And the “percentage recovery in the form of ammonium, % of applied urea (13 mg N)” value ([1]; listed as UI 0 NI 1)?
Answer: Its value is 69%.

Question: What about the “percentage recovery in the form of ammonium, % of applied urea (13 mg N)” value ([1]; listed as UI 0 NI ⅓) of the same compound?
Answer: The value was 62%.

Question: And the “percentage recovery in the form of ammonium, % of applied urea (13 mg N)” value ([1]; listed as UI 0 NI ⅔)?
Answer: Its value is 63%.

Question: And the “inhibition of nitrification (nitrate results)” value ([2]; 33% of the DMPSA, entire period)?
Answer: Its value is “sufficient to inhibit nitrification during the entire period”.

Question: And the “Nitrate, % of the urea applied (13 mg N)” value ([2]; 5 days after application, listed as UI 0 NI 1)?
Answer: The value was 6%.

Question: And the “Nitrate, % of the urea applied (13 mg N)” value ([2]; 5 days after application, listed as UI 0 NI ⅓)?
Answer: The value was 4%.

Question: And the “Nitrate, % of the urea applied (13 mg N)” value ([2]; 5 days after application, listed as UI 0 NI ⅔)?
Answer: Its value is 5%.

Question: And the “Nitrate, % of the urea applied (13 mg N)” value ([2]; 28 days after application, listed as UI 0 NI 1)?
Answer: Its value is 14%.

Question: What about the “Nitrate, % of the urea applied (13 mg N)” value ([2]; 28 days after application, listed as UI 0 NI ⅓) of the same compound?
Answer: Its value is 20%.

Question: And the “Nitrate, % of the urea applied (13 mg N)” value ([2]; 28 days after application, listed as UI 0 NI ⅔)?
Answer: Its value is 17%.

Question: And the “N2O—N cumulative” value ([3]; 0 days after appl., 150 g soil)?
Answer: The value was 0 μg N2O—N Bottle^1.

Question: And the “emissions of laughing gas” value ([3]; 33% of DMPSA)?
Answer: The value was “drastically reduces the emissions of laughing gas”.

Question: What about the “N2O—N cumulative” value ([3]; 0.5 days after appl.) of the same compound?
Answer: Its value is 0 μg N2O—N Bottle^1.

Question: And the “N2O—N cumulative” value ([3]; 1 day after appl., listed as UI-0_NI-1)?
Answer: Its value is 3 μg N2O—N Bottle^1.

Question: What about the “N2O—N cumulative” value ([3]; 1 day after appl., listed as UI-0_NI-2) of the same compound?
Answer: The value was 1 μg N2O—N Bottle^1.

Question: What about the “N2O—N cumulative” value ([3]; 1 day after appl., listed as UI-0_NI-3) of the same compound?
Answer: The value was 1 μg N2O—N Bottle^1.

Question: And the “N2O—N cumulative” value ([3]; 2 days after appl., listed as UI-0_NI-1)?
Answer: The value was 3 μg N2O—N Bottle^1.

Question: And the “N2O—N cumulative” value ([3]; 2 days after appl., listed as UI-0_NI-2)?
Answer: Its value is 1 μg N2O—N Bottle^1.

Question: What about the “N2O—N cumulative” value ([3]; 2 days after appl., listed as UI-0_NI-3) of the same compound?
Answer: Its value is 1 μg N2O—N Bottle^1.

Question: What about the “N2O—N cumulative” value ([3]; 3 days after appl., listed as UI-0_NI-1) of the same compound?
Answer: Its value is 4 μg N2O—N Bottle^1.

Question: And the “N2O—N cumulative” value ([3]; 3 days after appl., listed as UI-0_NI-2)?
Answer: Its value is 2 μg N2O—N Bottle^1.

Question: And the “N2O—N cumulative” value ([3]; 3 days after appl., listed as UI-0_NI-3)?
Answer: Its value is 1 μg N2O—N Bottle^1.

Question: And the “N2O—N cumulative” value ([3]; 4 days after appl., listed as UI-0_NI-1)?
Answer: Its value is 4 μg N2O—N Bottle^1.

Question: What about the “N2O—N cumulative” value ([3]; 4 days after appl., listed as UI-0_NI-2) of the same compound?
Answer: The value was 2 μg N2O—N Bottle^1.

Question: And the “N2O—N cumulative” value ([3]; 4 days after appl., listed as UI-0_NI-3)?
Answer: Its value is 2 μg N2O—N Bottle^1.

Question: What about the “N2O—N cumulative” value ([3]; 5 days after appl., listed as UI-0_NI-1) of the same compound?
Answer: The value was 4 μg N2O—N Bottle^1.

Question: What about the “N2O—N cumulative” value ([3]; 5 days after appl., listed as UI-0_NI-2) of the same compound?
Answer: Its value is 2 μg N2O—N Bottle^1.

Question: What about the “N2O—N cumulative” value ([3]; 5 days after appl., listed as UI-0_NI-3) of the same compound?
Answer: The value was 2 μg N2O—N Bottle^1.

Question: And the “N2O—N cumulative” value ([3]; 6 days after appl., listed as UI-0_NI-1)?
Answer: Its value is 5 μg N2O—N Bottle^1.

Question: What about the “N2O—N cumulative” value ([3]; 6 days after appl., listed as UI-0_NI-2) of the same compound?
Answer: The value was 2 μg N2O—N Bottle^1.

Question: What about the “N2O—N cumulative” value ([3]; 6 days after appl., listed as UI-0_NI-3) of the same compound?
Answer: The value was 2 μg N2O—N Bottle^1.

Question: And the “N2O—N cumulative” value ([3]; 8 days after appl., listed as UI-0_NI-1)?
Answer: Its value is 6 μg N2O—N Bottle^1.

Question: And the “N2O—N cumulative” value ([3]; 8 days after appl., listed as UI-0_NI-2)?
Answer: Its value is 3 μg N2O—N Bottle^1.

Question: What about the “N2O—N cumulative” value ([3]; 8 days after appl., listed as UI-0_NI-3) of the same compound?
Answer: Its value is 3 μg N2O—N Bottle^1.

Question: And the “N2O—N cumulative” value ([3]; 10 days after appl., listed as UI-0_NI-1)?
Answer: The value was 5 μg N2O—N Bottle^1.

Question: What about the “N2O—N cumulative” value ([3]; 10 days after appl., listed as UI-0_NI-2) of the same compound?
Answer: Its value is 3 μg N2O—N Bottle^1.

Question: What about the “N2O—N cumulative” value ([3]; 10 days after appl., listed as UI-0_NI-3) of the same compound?
Answer: The value was 2 μg N2O—N Bottle^1.

Question: What about the “N2O—N cumulative” value ([3]; 12 days after appl., listed as UI-0_NI-1) of the same compound?
Answer: The value was 5 μg N2O—N Bottle^1.

Question: What about the “N2O—N cumulative” value ([3]; 12 days after appl., listed as UI-0_NI-2) of the same compound?
Answer: The value was 3 μg N2O—N Bottle^1.

Question: And the “N2O—N cumulative” value ([3]; 12 days after appl., listed as UI-0_NI-3)?
Answer: Its value is 3 μg N2O—N Bottle^1.

Question: What about the “N2O—N cumulative” value ([3]; 14 days after appl., listed as UI-0_NI-1) of the same compound?
Answer: The value was 6 μg N2O—N Bottle^1.

Question: And the “N2O—N cumulative” value ([3]; 14 days after appl., listed as UI-0_NI-2)?
Answer: Its value is 3 μg N2O—N Bottle^1.

Question: And the “N2O—N cumulative” value ([3]; 14 days after appl., listed as UI-0_NI-3)?
Answer: The value was 3 μg N2O—N Bottle^1.

Question: And the “N2O—N cumulative” value ([3]; 17 days after appl., listed as UI-0_NI-1)?
Answer: The value was 6 μg N2O—N Bottle^1.

Question: And the “N2O—N cumulative” value ([3]; 17 days after appl., listed as UI-0_NI-2)?
Answer: The value was 3 μg N2O—N Bottle^1.

Question: And the “N2O—N cumulative” value ([3]; 17 days after appl., listed as UI-0_NI-3)?
Answer: Its value is 3 μg N2O—N Bottle^1.

Question: What about the “N2O—N cumulative” value ([3]; 18 days after appl., listed as UI-0_NI-1) of the same compound?
Answer: The value was 5 μg N2O—N Bottle^1.

Question: And the “N2O—N cumulative” value ([3]; 18 days after appl., listed as UI-0_NI-2)?
Answer: The value was 1 μg N2O—N Bottle^1.

Question: And the “N2O—N cumulative” value ([3]; 18 days after appl., listed as UI-0_NI-3)?
Answer: Its value is 2 μg N2O—N Bottle^1.

Question: And the “N2O—N cumulative” value ([3]; 20 days after appl., listed as UI-0_NI-1)?
Answer: Its value is 5 μg N2O—N Bottle^1.

Question: And the “N2O—N cumulative” value ([3]; 20 days after appl., listed as UI-0_NI-2)?
Answer: Its value is 2 μg N2O—N Bottle^1.

Question: What about the “N2O—N cumulative” value ([3]; 20 days after appl., listed as UI-0_NI-3) of the same compound?
Answer: The value was 2 μg N2O—N Bottle^1.

Question: What about the “N2O—N cumulative” value ([3]; 22 days after appl., listed as UI-0_NI-1) of the same compound?
Answer: The value was 7 μg N2O—N Bottle^1.

Question: What about the “N2O—N cumulative” value ([3]; 22 days after appl., listed as UI-0_NI-2) of the same compound?
Answer: The value was 3 μg N2O—N Bottle^1.

Question: And the “N2O—N cumulative” value ([3]; 22 days after appl., listed as UI-0_NI-3)?
Answer: Its value is 2 μg N2O—N Bottle^1.

Question: And the “N2O—N cumulative” value ([3]; 24 days after appl., listed as UI-0_NI-1)?
Answer: Its value is 7 μg N2O—N Bottle^1.

Question: What about the “N2O—N cumulative” value ([3]; 24 days after appl., listed as UI-0_NI-2) of the same compound?
Answer: Its value is 4 μg N2O—N Bottle^1.

Question: What about the “N2O—N cumulative” value ([3]; 24 days after appl., listed as UI-0_NI-3) of the same compound?
Answer: Its value is 3 μg N2O—N Bottle^1.

Question: And the “N2O—N cumulative” value ([3]; 28 days after appl., listed as UI-0_NI-1)?
Answer: The value was 8 μg N2O—N Bottle^1.

Question: What about the “N2O—N cumulative” value ([3]; 28 days after appl., listed as UI-0_NI-2) of the same compound?
Answer: The value was 6 μg N2O—N Bottle^1.

Question: And the “N2O—N cumulative” value ([3]; 28 days after appl., listed as UI-0_NI-3)?
Answer: The value was 4 μg N2O—N Bottle^1.

Question: What about the “N2O—N cumulative, % of appl.” value ([3]; listed as UI-0_NI-1) of the same compound?
Answer: Its value is 0.01 % of appl.

Question: And the “N2O—N cumulative, % of appl.” value ([3]; listed as UI-0_NI-2)?
Answer: Its value is 0.01 % of appl.

Question: What about the “N2O—N cumulative, % of appl.” value ([3]; listed as UI-0_NI-3) of the same compound?
Answer: Its value is 0.00 % of appl.

Question: What about the “Ammonia emission, % of the urea applied (77 mg N)” value (from here on “Ammonia emission, %”) ([4]; 4 days after application, listed as UI 0 NI 1) of the same compound?
Answer: Its value is 0.7%.

Question: And the “Ammonia emission, %” value ([4]; 4 days after application, listed as UI 0 NI ⅓)?
Answer: Its value is 0.6%.

Question: And the “Ammonia emission, %” value ([4]; 4 days after application, listed as UI 0 NI ⅔)?
Answer: Its value is 0.9%.

Question: What about the “Ammonia emission, %” value ([4]; 9 days after application, listed as UI 0 NI 1) of the same compound?
Answer: Its value is 2.2%.

Question: And the “Ammonia emission, %” value ([4]; 9 days after application, listed as UI 0 NI ⅓)?
Answer: The value was 3.7%.

Question: What about the “Ammonia emission, %” value ([4]; 9 days after application, listed as UI 0 NI ⅔) of the same compound?
Answer: The value was 2.4%.

Question: What about the “effect of addition on ammonia emissions” value ([4]; addition of DMPSA) of the same compound?
Answer: The value was “causes the ammonia emissions to rise”.
